Entries after “also recorded” stand apart in the source; their conditions may differ. Ends that are not written are not given here. Peptide text beside a SMILES is read from it.
Experiments:
[1] = test system: NSCLC A549 and H460 or breast adenocarcinoma MDA-231 and MCF-7 cells; assay: NSCLC and breast adenocarcinoma cell lines, TMRE flow cytometry and CellTox cell death; format: cell-based, human; conditions: A549, H460, MDA-231, MCF-7 cells, 10-25 μM
[2] = test system: patient-derived breast adenocarcinoma organoids; assay: patient-derived breast adenocarcinoma organoids, Ki-67 and cleaved caspase-3 immunohistochemistry; format: cell-based, human; conditions: 50-100 μM, 24 h
[3] = test system: prostate cancer cell types (LNCaP, C4-2B, PC3, DU145); assay: cell death of prostate cancer cells, CellTox reactivity; format: cell-based, human; conditions: for tumor cell death / viability: PC3 / prostate cancer cells, 0-50 μM
Experimental: (§2) Cell death and apoptosis. […] The various cell-permeable MFF peptides were examined for induction of cytotoxicity using a CellTOX Green cytotoxicity assay kit (Promega). Briefly, 10^4 normal or tumor cells in 100 μl complete medium were plated on white opaque 96-well plate. […] Lysis Solution in the assay kit was used as cytotoxicity control (100% cell death) and treatment with PBS was used as a control for 100% cell viability.

glioblastoma LN229 cells = assay: cell death of glioblastoma cells; format: cell-based, human
Description: (§1) Cell death and apoptosis.

[4] = test system: normal human foreskin fibroblasts (HFF); assay: cell death of normal fibroblasts; format: cell-based; conditions: 0-40 μM
Description: as §1

[5] = test system: patient-derived glioblastoma (GBM) neurospheres; assay: patient-derived glioblastoma (GBM) neurospheres, calcein / To-Pro viability; format: cell-based; conditions: 10-50 μM, 1, 3 or 24 h; scrambled 50 μM
Description: Glioblastoma (GBM) neurospheres. Primary, patient-derived GBM neurospheres were isolated and maintained in culture essentially as described (Senft, D. & Ronai, Z. A. Regulators of mitochondrial dynamics in cancer. Curr Opin Cell Biol 39, 43-52 (2016)). Tissue samples were obtained from chemotherapy- or radiotherapy-naïve patients with confirmed histological diagnosis of WHO grade IV glioma (GBM) undergoing treatment at the Neurosurgery Division of Fondazione IRCCS Ca' Granda Ospedale Maggiore Policlinco (Milan, Italy). Written informed consent was obtained from all patients. Neurospheres were cyto-spinned on charged slides (Thermo Scientific, Waltham, Mass.) and treated with cell-permeable scrambled peptide (50 μM) or cell-permeable retro-inverso D-enantiomer MFF peptide (10-50 μM) for up to 24 h. Control-normalized changes in cell viability under the various conditions were determined by the ratio of Calcein (alive) and To-Pro (dead) staining and fluorescence microscopy (Eclipse Ti-E, Nikon Instruments, Florence, Italy).

[6] = test system: patient-derived NSCLC organoids; assay: patient-derived NSCLC organoids, Ki-67 and cleaved caspase-3 immunohistochemistry; format: cell-based, human; conditions: 50-100 μM, 24 h
[7] = test system: normal prostatic epithelial cells (BPH-1); assay: cell death of normal prostatic epithelial cells; format: cell-based, human; conditions: 0-40 μM, 2 h
Description: as §1

DU145 or PC3 cells = assay: release of HMGB1 and cyclophilin A from tumor cells, Western blotting; format: cell-based, human; conditions: marker of necrosis
PC3 cells [8] = assay: mitochondrial membrane potential in tumor cells, TMRE, time-lapse videomicroscopy and flow cytometry; format: cell-based, human; conditions: 10 μM, single-cell time-lapse videomicroscopy or whole cell population
Experimental: Analysis of mitochondrial membrane potential. […] In some experiments, PC3 cells were treated with cell-permeable scrambled peptide or cell-permeable MFF #8-11 peptide, washed three times in PBS, pH 7.4, and analyzed on a FACSCalibur flow cytometer, with the TMRE signal as FL1. Intact cells were gated in the FSC/SSC plot to exclude small debris. Cells treated with 20 μM FCCP 10 min prior to TMRE staining were used as a negative control. The resulting FL1 data were plotted on a histogram. For quantification of membrane potential of purified mitochondria, mitochondria isolated from PC3 cells (50 μg) were suspended in 400 μl of SB buffer (0.2 M sucrose, 10 mM Tris-MOPS, pH 7.4, 5 mM succinate, 1 mM sodium phosphate, 10 μM EGTA-Tris, 2 μM rotenone). […] After two washes with SB buffer, mitochondria were recovered by centrifugation at 6000×g for 10 min, suspended in 100 μl of SB buffer and mitochondrial membrane potential was quantified on a florescence microplate reader (Ex/Em=535/595 nm, Beckman Coulter). […]
For time-lapse videomicroscopy, PC3 cells (2×10^4) growing in high optical-quality glass bottom chambered 8-well cell culture slides (MatTek Corporation) were stained with 100 nM TMRE (Abcam) and 50 nM MitoTracker Green FM (Life Technologies) for 20 min. […] A minimum of 100 cells were analyzed from 2 independent experiments. […]

PC3 cells [9] = assay: cytochrome c release from tumor cells, Western blotting; format: cell-based, human; conditions: supernatants vs mitochondrial extracts
[10] = test system: immortalized wild type (WT) mouse embryonic fibroblasts (MEF); assay: cell death of wild type MEF; format: cell-based; conditions: 10-50 μM
Description: as §1

CypD^−/− MEF = assay: cell death of CypD-/- MEF; format: cell-based, mouse; conditions: 25 μM
Description: as §1

[11] = test system: drug-sensitive and drug-resistant melanoma cells; conditions: isogenic pairs, CellTox reactivity
Experimental: as §2

Molecule | tumor cell death ([1]; CellTox) | mitochondrial membrane potential ([1]; TMRE) | apoptosis / cell death markers (cleaved caspase-3^+ cells), breast adenocarcinoma organoids [2] | cell proliferation (Ki-67^+ cells), breast adenocarcinoma organoids [2] | tumor cell death / viability [3] | killing of GBM LN229 cells (glioblastoma LN229 cells; 0-40 μM) | cell death of normal fibroblasts (HFF) [4] | cytotoxicity for patient-derived GBM neurospheres (loss of cell viability) [5] | apoptosis / cell death markers (cleaved caspase-3^+ cells), NSCLC organoids [6] | cell proliferation (Ki-67^+ cells), NSCLC organoids [6] | cell death of normal prostatic epithelial cells [7] | HMGB1 release from tumor cells (DU145 or PC3 cells) | loss of mitochondrial membrane potential (PC3 cells [8]) | IC50 ([3]; prostate cancer cell types, read-out: IC50, cell killing) [µM] | IC50 (glioblastoma LN229 cells; glioblastoma, read-out: IC50, cell killing) [µM] | cyclophilin A (CypA) release from tumor cells (DU145 or PC3 cells) | cytochrome c release from tumor cells (PC3 cells [9]) | cell death of WT MEF [10] | cell death of CypD^−/− MEF (CypD^−/− MEF) | cell death of drug-sensitive and drug-resistant melanoma cells [11]
cell-permeable scrambled peptide: cell-permeable control scrambled peptide #8-11 (SEQ ID NO: 22) (SSQLRYLARSQRITIQLIAGS; also: cell-permeable moiety) | had no effect | had no effect | had no effect | had no effect | did not kill normal or prostate cancer cells | did not cause LN229 cell killing | did not kill normal or prostate cancer cells | not | had no effect | had no effect | did not kill normal or prostate cancer cells | had no effect on HMGB1 release; also recorded: did not induce HMGB1 release | not | – | – | – | – | – | – | –
CC[C@H](C)[C@H](NC(=O)CNC(=O)[C@H](CCCNC(=N)N)NC(=O)[C@H](C)NC(=O)[C@H](CO)NC(=O)[C@H](CCCCN)NC(=O)[C@H](CCSC)NC(=O)[C@H](CCCNC(=N)N)NC(=O)[C@H](CCCNC(=N)N)NC(=O)[C@H](CC(N)=O)NC(=O)[C@H](CCC(N)=O)NC(=O)[C@H](Cc1ccccc1)NC(=O)[C@H](Cc1c[nH]c2ccccc12)NC(=O)[C@@H](NC(=O)[C@H](CCCCN)NC(=O)[C@@H](NC(=O)[C@H](CCC(N)=O)NC(=O)[C@H](CCCNC(=N)N)NC(=O)CCCCCNC(=O)CCCC[C@@H]1SC[C@@H]2NC(=O)N[C@@H]21)[C@@H](C)CC)[C@@H](C)CC)C(=O)N[C@@H](CC(C)C)C(=O)N[C@@H](CO)C(=O)N[C@@H](CC(C)C)C(=O)N[C@H](C(=O)N[C@@H](CCC(N)=O)C(=O)N[C@@H](CO)C(=O)N[C@@H](CO)C(=O)N[C@H](C(=O)N[C@@H](CCCNC(=N)N)C(=O)N[C@@H](CCCNC(=N)N)C(=O)N[C@@H](C)C(=O)N[C@@H](Cc1ccc(O)cc1)C(=O)N[C@@H](CCC(N)=O)C(=O)N[C@@H](CCC(N)=O)C(=O)N[C@H](C(=O)N[C@@H](CC(C)C)C(=O)O)[C@@H](C)CC)[C@@H](C)O)[C@@H](C)CC [cell-permeable MFF peptide #8-11] (HELM PEPTIDE1{[O=C1N[C@H]2[C@H](CS[C@H]2CCCCC(=O)[*:2])N1].[O=C(CCCCCN[*:1])[*:2]].R.Q.I.K.I.W.F.Q.N.R.R.M.K.S.A.R.G.I.L.S.L.I.Q.S.S.T.R.R.A.Y.Q.Q.I.L}$$$$V2.0; N-terminus and C-terminus assumed) | – | – | – | – | efficiently killed tumor cells in a time- and concentration-dependent manner | – | – | – | – | – | – | induced the release of HMGB1 and cyclophilin A (CypA) | induced acute loss of mitochondrial membrane potential; also recorded: induced sudden loss of mitochondrial membrane potential | ~10 | ~10 | induced the release of HMGB1 and cyclophilin A (CypA) | induced cytochrome c release | killed immortalized wild type (WT) mouse embryonic fibroblasts (MEF) in a concentration-dependent manner; also recorded: efficiently killed WT MEF in a time- and concentration-dependent response | abolished cell death | comparably killed

Reference: patent US12662518B2, “Engineered peptide and peptide mimetic compositions and methods” (The Wistar Institute of Anatomy and Biology, priority 2019, dated 2026)
